This is an account of results in patent US20250297220A1, “IMMUNE-ACTIVATING COMPLEXES” (Dynamic Cell Therapies, Inc., priority 2022, published 2025).

The test system of series [1] is engineered cytokine receptor switches (fluorescein-binding receptor domains, IL-7 receptor-a intracellular signaling domains). Kind of series: T-cell activation, transduction, expansion and differentiation; memory phenotype quantification. In kind it is cell-based. Particulars: after 5 days in multi-well plates; non-fluorescein contacted cells about 30%. From the text:
This example covers activation, differentiation, and expansion of immune cells with engineered cytokine receptor switches. The engineered cytokine receptor switches included fluorescein-binding receptor domains and IL-7 receptor-a intracellular signaling domains. The cells were activated with CD3 and CD28 antibody-coated beads, followed by small molecule activators for the engineered cytokine switches to promote differentiation to memory phenotypes. The proportion of stem-cell memory, central memory, and effector memory cells were measured following differentiation.
Activation, transfection, expansion, and differentiation were performed according to the timeline in FIG. 28A. The cells were maintained in media with 20 units/ml IL2 throughout the incubation. The cells were first contacted with CD3/CD28 activating beads at a ratio of 1:1 (cells to beads). Following three days of activation and expansion, the cells were transfected with a gamma retroviral vector encoding the engineered cytokine receptor switch with fluorescein binding affinity and mCherry for fluorescence detection. The cells were then transferred to a multi-well plate. […]
Following 5 total days of incubation in the multi-well plates, the cells were analyzed for (1) stem-cell memory, (2) central memory, (3) effector memory, and (4) terminally differentiated effector memory re-expressing CD45RA phenotype. […]

Series [2] in a line: Molar absorptivities at 280 nm and 493 nm. The format is physicochemical. The protocol: UV-vis absorption profiles were obtained for compound 7-functionalized antibodies, unfunctionalized antibodies, and free compound 7. FIG. 47 provides the results of these analyses. Molar absorptivities (8) were determined for the anti-BCMA antibody at 280 nm (primarily corresponding tyrosine and tryptophan absorbances from the anti-BCMA antibody) and at 493 nm for maleimide fluorescein and 5 (6)-carboxy fluorescein (primarily corresponding to the HOMO to LUMO transition within the fluorescein x-system), and are summarized in Table 18. As the unfunctionalized antibody minimally absorbed around 493 nm, absorbance in this region is quantitative for fluorescein concentration.

In the case of `O=C1OC2(c3ccc(O)cc3Oc3cc(O)ccc32)c2ccccc21` [fluorescein], in series [1], the “proportion of central memory cells” value is reported as “about 50%”. Take `O=C1OC2(c3ccc(O)cc3Oc3cc(O)ccc32)c2ccc(N3C(=O)C=CC3=O)cc21` [Fluorescein-Maleimide]: in series [2] (molar absorptivity at 280 nm), the ε280 nm amounted to 7968 M⁻¹ cm⁻¹. This compound showed a ε493nm in series [2] (molar absorptivity at 493 nm) of 43908 M⁻¹ cm⁻¹.
